Reference: patent US5036008A, “Antitumor antibiotic BU-3285T” (Bristol-Myers Company, priority 1990, dated 1991)
≈ marks a conversion by molar mass, not a printed value.

Assays:
A. fumigatus IAM2034 = experiment: microbe, parasite or virus in culture; details: Aspergillus fumigatus, IAM2034, 40 h, pH 7
Method: (§4) In vitro antifungal activity was determined against various fungi by the serial agar dilution method. Sabouraud dextrose agar (pH 7.0) was used for the experiment. The inoculum size was adjusted to 10^6 CFU/ml. After incubation at 28° C. for 40 hours, the minimum inhibitory concentration (MIC) was examined.

[1] = tested on: Blastomyces dermatidis D40; experiment: In vitro antifungal activity, serial agar dilution; details: D40, 40 h, pH 7
Method: as §4

A. flavus FA21436 = experiment: In vitro antifungal activity, serial agar dilution; details: Aspergillus flavus, FA21436, 40 h, pH 7
Method: as §4

[2] = tested on: Cryptococcus neoformans D49; experiment: In vitro antifungal activity, serial agar dilution; details: D49, 40 h, pH 7
Method: as §4

Candida albicans IAM4888 = experiment: In vitro antifungal activity, serial agar dilution; details: IAM4888, 40 h, pH 7
Method: as §4

Mucor spinosus IF05317 = experiment: In vitro antifungal activity, serial agar dilution; details: IF05317, 40 h, pH 7
Method: as §4

[3] = tested on: Petriellidium boydii IF08078; experiment: In vitro antifungal activity, serial agar dilution; details: Scedosporium boydii, IF08078, 40 h, pH 7
Method: as §4

[4] = tested on: Sporothrix schenckii IF08158; experiment: microbe, parasite or virus in culture; details: IF08158, 40 h, pH 7
Method: as §4

[5] = tested on: Trichophyton mentagrophytes D155; experiment: In vitro antifungal activity, serial agar dilution; details: D155, 40 h, pH 7
Method: as §4

[6] = tested on: Fusarium moniliforme A2284; experiment: In vitro antifungal activity, serial agar dilution; details: Fusarium verticillioides, A2284, 40 h, pH 7
Method: as §4

T. mentagrophytes #4329 = experiment: In vitro antifungal activity, serial agar dilution; details: Trichophyton mentagrophytes, 40 h, pH 7
Method: as §4

C. neoformans IAM4514 = experiment: In vitro antifungal activity, serial agar dilution; details: Cryptococcus neoformans, IAM4514, 40 h, pH 7
Method: as §4

[7] = tested on: Aspergillus fumigatus IAM2530; experiment: In vitro antifungal activity, serial agar dilution; details: IAM2530, 40 h, pH 7
Method: as §4

C. albicans A9540 = experiment: In vitro antifungal activity, serial agar dilution; details: Candida albicans, A9540, 40 h, pH 7
Method: as §4

Piricularia oryzae D91 = experiment: microbe, parasite or virus in culture; format: cell-based; details: 40 h, pH 7
P388 leukemia = experiment: In vivo antitumor activity against P388 leukemia (Table 8); details: Q1D × 3
[8] = tested on: protein biosynthesis in L1210 leukemia cells; experiment: Inhibition of macromolecule biosynthesis, protein (Table 7); format: cell-based, murine; details: Mus musculus, L1210; labelled precursor; 15 min + 60 min, 37° C.; read-out: IC50, protein synthesis
Method: (§1) Inhibitory effects of BU-3285T on macromolecule biosynthesis (DNA, RNA and protein) were determined in cultured L1210 murine leukemia cells. The cells (5×10^5 cells/ml) were incubated with the compound at 37° C. for 15 minutes and then further incubated for 60 minutes after the addition of labelled precursor, ^3 H-thymidine, ^14 C-uridine or ^3 H-leucine into the cultured mixture. After washing with chilled 5% trichloroacetic acid solution, the radioactivity incorporated into the acid-insoluble fraction of the cells was determined by a liquid scintillation counter.

[9] = tested on: DNA biosynthesis in L1210 leukemia cells; experiment: Inhibition of macromolecule biosynthesis, DNA (Table 7); format: cell-based, murine; details: Mus musculus, L1210; 3H-thymidine, ^14 C-uridine or 3H-leucine precursor; 15 min + 60 min, 37° C.; read-out: IC50, DNA synthesis
Method: as §1

L1210 leukemia = experiment: In vivo antitumor activity against L1210 leukemia (Table 9); details: Q1D × 3
[10] = tested on: Moser (human colorectal carcinoma) cells; experiment: In vitro cytotoxicity (Table 6); details: Homo sapiens, 72 h
Method: (§2) BU-3285T was tested for in vitro cytotoxicity against several murine and human tumor cell lines and for in vivo antitumor activity in mice. Mitomycin C was used as a reference compound in both in vitro and in vivo experiments. B16-F10 (murine melanoma) and Moser (human colorectal carcinoma) cells were grown to the logarithmic phase in an enriched Eagle minimum essential medium supplemented with fetal calf serum (FCS, 10%) and kanamycin (60 μg/ml); HCT-116 (human colon carcinoma) cells were in McCoy's 5A medium supplemented with FCS (10%), penicillin (100 U/ml) and streptomycin (100 μg/ml); and P388 (murine lymphocytic leukemia) cells and its vincristine-resistant subline (P388/VCR) were in RPMI 1640 medium supplemented with FCS (10%), penicillin (100 U/ml) and streptomycin (100 μg/ml).
(§3) B16-F10, Moser, HCT-116 and P388 cells were harvested and implanted into wells of a 96-well (for B16-F10, Moser and HCT-116 cells) or a 24-well (for P388 cells) tissue culture plate with test materials at the inoculum sizes of 3×10^4, 6 ×10^4, 6×10^4 and 2×10^4 cells/ml, respectively. They were incubated at 37° C. in a humidified atmosphere of 5% CO2 and 95% air for 72 hrs. […] For P388 cells, the number of viable cells was determined by a Coulter counter.

[11] = tested on: RNA biosynthesis in L1210 leukemia cells; experiment: Inhibition of macromolecule biosynthesis, RNA (Table 7); format: cell-based, murine; details: Mus musculus, labelled precursor, 15 min + 60 min, 37° C., read-out: IC50, RNA synthesis
Method: as §1

[12] = tested on: HCT-116 (human colon carcinoma) cells; experiment: In vitro cytotoxicity (Table 6); format: cell-based; details: HCT-116, 72 hrs, neutral red
Method: as §2, §3

[13] = tested on: B16-F10 (murine melanoma) cells; experiment: In vitro cytotoxicity (Table 6); format: cell-based; details: Mus musculus; B16-F10, 72 hrs, neutral red
Method: as §2, §3

[14] = tested on: B16-F10 (murine melanoma) cells; experiment: In vitro cytotoxicity (Table 14); format: cell-based; details: Mus musculus, B16-F10, 72 h
Method: (§5) B16-F10 (murine melanoma), HCT-116 (human colon carcinoma), A549 (human lung carcinoma) and A549/VP29 (an etoposide-resistant subline of A549) were grown in Eagle's MEM (Nissui) supplemented with FCS (fetal calf serum, 10%) and non-essential amino acids (B16-F10), or in McCoy's 5A medium (Gibco) with FCS (10%), essential and non-essential amino acids, vitamins and antibiotics (HCT-116 and both of A549) at 37° C. under a humidified atmosphere in a 5% CO2 incubator. Exponentially growing B16-F10, HCT-116 and A549 cells were harvested, counted and suspended in the culture medium at 1.5×10^4, 3×10^4 and 3×10^4 cells/ml, respectively. After planting 180 μl of cell suspension into wells of a 96-well microtiter plate on day 0, the test materials (20 μl) were added on day 1 and the plates were incubated for 72 hours. The cytotoxic activity was colorimetrically determined at 540 nm after staining viable cells with neutral red solution.

[15] = tested on: HCT-116 (human colon carcinoma) cells; experiment: In vitro cytotoxicity (Table 14); format: cell-based; details: HCT-116, 72 h
Method: as §5

[16] = 0.1 mg/kg/day ip, significant if T/C ≥ 125%
[17] = 0.3 mg/kg/day ip, *2 significant, T/C ≥ 125%
[18] = 1 mg/kg/day ip, *2 significant, T/C ≥ 125%
[19] = 3 mg/kg/day ip, *2 significant, T/C ≥ 125%

Structure (SMILES): C[C@@H]1[C@H](O)[C@@H](C)/C=C/C=C/C=C/C=C/C=C/C=C/C=C/[C@H](O[C@@H]2O[C@H](C)[C@@H](O)[C@H](N)[C@@H]2O)C[C@@H]2O[C@](O)(C[C@@H](O)C[C@@H](O)[C@H](O)CC[C@@H](O)C[C@@H](O)CC(=O)O[C@H]1C)C[C@H](O)[C@H]2C(=O)O [Amphotericin B]
- MIC (A. fumigatus IAM2034): 3.1 µg/mL (≈ 3.35 µM)
- MIC [1]: 12.5 µg/mL (≈ 13.5 µM)
- MIC (A. flavus FA21436): 1.6 µg/mL (≈ 1.73 µM)
- MIC [2]: 0.8 µg/mL (≈ 0.866 µM)
- MIC (Candida albicans IAM4888): 1.6 µg/mL (≈ 1.73 µM)
- MIC (Mucor spinosus IF05317): 6.3 µg/mL (≈ 6.82 µM)
- MIC [3]: > 100 µg/mL
- MIC [4]: > 100 µg/mL
- MIC [5]: 6.3 µg/mL (≈ 6.82 µM)
- MIC [6]: 3.1 µg/mL (≈ 3.35 µM)
- MIC (T. mentagrophytes #4329): 6.3 µg/mL (≈ 6.82 µM)
- MIC (C. neoformans IAM4514): 0.8 µg/mL (≈ 0.866 µM)
- MIC [7]: 3.1 µg/mL (≈ 3.35 µM)
- MIC (C. albicans A9540): 1.6 µg/mL (≈ 1.73 µM)
- MIC (Piricularia oryzae D91): 12.5 µg/mL (≈ 13.5 µM)

Structure (SMILES): CO[C@@]12[C@H](COC(N)=O)C3=C(C(=O)C(C)=C(N)C3=O)N1C[C@@H]1N[C@@H]12 [Mitomycin C, reference compound]
- MST (median survival time) (P388 leukemia; 0.1 mg/kg/day ip): 11.5 days
- T/C (P388 leukemia; [16]): 115%
- MST (median survival time) (P388 leukemia; 0.3 mg/kg/day ip): 14.0 days
- T/C (P388 leukemia; [17]): 140%
- MST (median survival time) (P388 leukemia; 1 mg/kg/day ip): 13.5 days
- T/C (P388 leukemia; [18]): 135%
- MST (median survival time) (P388 leukemia; 3 mg/kg/day ip): 20.0 days
- T/C (P388 leukemia; [19]): 200%
- IC50 [8]: > 100 µg/mL
- IC50 [9]: 1.7 µg/mL
- MST (median survival time) (L1210 leukemia; 0.1 mg/kg/day ip): 8.5 days
- T/C (L1210 leukemia; [16]): 121%
- MST (median survival time) (L1210 leukemia; 0.3 mg/kg/day ip): 10.0 days
- T/C (L1210 leukemia; [17]): 143%
- MST (median survival time) (L1210 leukemia; 1 mg/kg/day ip): 9.5 days
- T/C (L1210 leukemia; [18]): 136%
- MST (median survival time) (L1210 leukemia; 3 mg/kg/day ip): 13.0 days
- T/C (L1210 leukemia; [19]): 186%
- IC50 [10]: 1.2 µg/mL (≈ 3.59 µM)
- IC50 [11]: > 100 µg/mL
- IC50 [12]: 0.8 µg/mL (≈ 2.39 µM)
- IC50 [13]: 0.5 µg/mL (≈ 1.5 µM)

Structure (SMILES): COc1cccc2c1C(=O)c1c(O)c3c(c(O)c1C2=O)C[C@@](O)(C(=O)CO)C[C@@H]3O[C@H]1C[C@H](N)[C@H](O)[C@H](C)O1 [Adriamycin, reference compound]
- IC50 [14]: 0.03 µg/mL (≈ 0.0552 µM)
- IC50 [15]: 0.3 µg/mL (≈ 0.552 µM)
